According to patent US20200405699A1, “TREATING SICKLE CELL DISEASE WITH A PYRUVATE KINASE R ACTIVATING COMPOUND” (FORMA Therapeutics, Inc., priority 2018, published 2020):

Assays:
PKR(G332S) = PKR(G332S) (Homo sapiens, UniProt P30613, G332S); test: Luminescence Assay (Kinase Glo Plus), PKR G332S; type: biochemical; conditions: read-out: AC50 (PKRG332S)
Procedure: (§1) For each tested compound, the ability to activate PKR was determined using the following Luminescence Assay. The effect of phosphorylation of adenosine-5′-diphosphate (ADP) by PKR is determined by the Kinase Glo Plus Assay (Promega) in the presence or absence of FBP (D-fructose-1,6-diphosphate; BOC Sciences, CAS: 81028-91-3) as follows. Unless otherwise indicated, all reagents are purchased from Sigma-Aldrich. All reagents are prepared in buffer containing 50 mM Tris-HCl, 100 mM KCl, 5 mM MgCl2, and 0.01% Triton X100, 0.03% BSA, and 1 mM DTT. Enzyme and PEP (phosphoenolpyruvate) are added at 2× to all wells of an assay-ready plate containing serial dilutions of test compounds or DMSO vehicle. Final enzyme concentrations for PKR(wt), PKR(R510Q), and PKR(G332S) are 0.8 nM, 0.8 nM, and 10 nM respectively. Final PEP concentration is 100 μM. The Enzyme/PEP mixture is incubated with compounds for 30 minutes at RT before the assay is initiated with the addition of 2×ADP and KinaseGloPlus. Final concentration of ADP is 100 μM. […] For assays containing FBP, that reagent is added at 30 μM upon reaction initiation. Reactions are allowed to progress for 45 minutes at RT until luminescence is recorded by the BMG PHERAstar FS Multilabel Reader. The compound is tested in triplicate at concentrations ranging from 42.5 μM to 2.2 nM in 0.83% DMSO. AC50 measurements were obtained by the standard four parameter fit algorithm of ActivityBase XE Runner (max, min, slope and AC50). The AC50 value for a compound is the concentration (μM) at which the activity along the four parameter logistic curve fit is halfway between minimum and maximum activity.
(§2) As set forth in Tables 2 and 3 below and in FIG. 1, AC50 values are defined as follows: ≤0.1 μM (+++); >0.1 μM and ≤1.0 μM (++); >1.0 μM and ≤40 μM (+); >40 μM (0).

PKR-R510Q = PKR-R510Q (Homo sapiens, UniProt P30613, R510Q); test: Luminescence Assay (Kinase Glo Plus), PKR R510Q; type: biochemical; conditions: read-out: AC50 (PKRR510Q)
PKR-R510Q, sequence (P30613 whole entry R510Q): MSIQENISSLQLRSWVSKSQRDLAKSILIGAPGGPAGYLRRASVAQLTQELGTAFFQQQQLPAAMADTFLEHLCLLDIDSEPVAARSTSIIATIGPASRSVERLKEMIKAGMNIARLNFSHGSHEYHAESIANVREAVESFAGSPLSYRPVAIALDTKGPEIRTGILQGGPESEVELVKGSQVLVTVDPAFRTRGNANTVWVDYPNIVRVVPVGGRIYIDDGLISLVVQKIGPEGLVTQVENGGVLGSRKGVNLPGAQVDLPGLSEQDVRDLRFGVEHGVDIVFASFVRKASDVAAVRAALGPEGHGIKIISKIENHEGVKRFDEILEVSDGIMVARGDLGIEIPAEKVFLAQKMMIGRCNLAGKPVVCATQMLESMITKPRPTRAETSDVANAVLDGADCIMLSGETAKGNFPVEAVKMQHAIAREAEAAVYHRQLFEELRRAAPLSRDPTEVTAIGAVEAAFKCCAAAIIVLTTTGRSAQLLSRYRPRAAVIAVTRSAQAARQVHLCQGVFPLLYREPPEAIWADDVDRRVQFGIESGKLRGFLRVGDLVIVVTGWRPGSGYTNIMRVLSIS
Procedure: as §1, §2

PKR(G332S), sequence (P30613 whole entry G332S): as the sequence (P30613 whole entry R510Q) above, with G332S, Q510R counted along it

AC50 (PKR(G332S)) [µM] | AC50 (PKR-R510Q) [µM] | SMILES
0.1 to 1 | 1 to 40 | O=C([C@H](O)c1cccnc1)N1CC2=C(C1)CN(S(=O)(=O)c1cnc3c(c1)OCCO3)C2 [Compound 6]
> 40 | > 40 | O=C([C@H](CO)c1ccccc1)N1CC2=C(C1)CN(C(=O)[C@H](CO)c1ccccc1)C2 [Compound 7]
> 40 | > 40 | O=C(c1cn[nH]c1-c1ccccc1)N1CC2=C(C1)CN(S(=O)(=O)c1ccc3c(c1)OCCO3)C2 [Compound 8]
